Measurements published in ChEMBL document CHEMBL1137967, “Lactams as EP4 prostanoid receptor subtype selective agonists. Part 1: 2-Pyrrolidinones-stereochemical and lower side-chain optimization” (Bioorg Med Chem Lett, 2004).

Tests used:
[1] = biological target: Prostaglandin E2 receptor EP2 subtype (Homo sapiens, UniProt P43116); test: Binding affinity was determined against prostanoid EP2 receptor
[2] = biological target: T1, Prostaglandin E2 receptor EP3 subtype (Homo sapiens, UniProt P43115); test: Binding affinity was determined against prostanoid EP3 receptor
T1 sequence (P43115 whole entry): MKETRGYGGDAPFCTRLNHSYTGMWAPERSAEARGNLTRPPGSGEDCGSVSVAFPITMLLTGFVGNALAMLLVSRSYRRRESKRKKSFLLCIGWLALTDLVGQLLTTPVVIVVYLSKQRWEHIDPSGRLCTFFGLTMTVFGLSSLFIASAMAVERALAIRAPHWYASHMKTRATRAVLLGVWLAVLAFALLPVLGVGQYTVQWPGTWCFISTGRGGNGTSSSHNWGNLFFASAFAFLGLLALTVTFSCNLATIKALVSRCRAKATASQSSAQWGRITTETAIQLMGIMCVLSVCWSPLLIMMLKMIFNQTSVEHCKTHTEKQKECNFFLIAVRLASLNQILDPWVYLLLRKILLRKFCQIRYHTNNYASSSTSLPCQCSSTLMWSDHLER

[3] = biological target: T2, Prostaglandin E2 receptor EP4 subtype (Homo sapiens, UniProt P35408); test: Agonist activity against recombinant prostanoid EP4 receptor stably transfected in CHO cells; type: functional, cell-based
T2 sequence (P35408 whole entry): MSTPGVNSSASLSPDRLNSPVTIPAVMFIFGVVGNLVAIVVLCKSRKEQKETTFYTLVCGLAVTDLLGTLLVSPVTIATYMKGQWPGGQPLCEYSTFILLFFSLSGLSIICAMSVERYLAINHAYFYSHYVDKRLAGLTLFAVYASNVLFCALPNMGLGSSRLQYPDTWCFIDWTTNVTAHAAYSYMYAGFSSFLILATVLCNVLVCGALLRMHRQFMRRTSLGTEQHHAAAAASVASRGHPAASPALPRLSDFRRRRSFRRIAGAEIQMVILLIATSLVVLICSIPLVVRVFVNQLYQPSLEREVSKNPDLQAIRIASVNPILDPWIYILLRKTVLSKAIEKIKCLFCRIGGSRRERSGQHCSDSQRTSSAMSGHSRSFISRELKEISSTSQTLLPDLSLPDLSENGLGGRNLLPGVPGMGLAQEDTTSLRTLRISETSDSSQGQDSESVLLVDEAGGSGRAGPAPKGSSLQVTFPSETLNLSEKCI

[4] = biological target: T3, Prostaglandin E2 receptor EP1 subtype (Homo sapiens, UniProt P34995); test: Binding affinity was determined against prostanoid EP1 receptor
T3 sequence (P34995 whole entry): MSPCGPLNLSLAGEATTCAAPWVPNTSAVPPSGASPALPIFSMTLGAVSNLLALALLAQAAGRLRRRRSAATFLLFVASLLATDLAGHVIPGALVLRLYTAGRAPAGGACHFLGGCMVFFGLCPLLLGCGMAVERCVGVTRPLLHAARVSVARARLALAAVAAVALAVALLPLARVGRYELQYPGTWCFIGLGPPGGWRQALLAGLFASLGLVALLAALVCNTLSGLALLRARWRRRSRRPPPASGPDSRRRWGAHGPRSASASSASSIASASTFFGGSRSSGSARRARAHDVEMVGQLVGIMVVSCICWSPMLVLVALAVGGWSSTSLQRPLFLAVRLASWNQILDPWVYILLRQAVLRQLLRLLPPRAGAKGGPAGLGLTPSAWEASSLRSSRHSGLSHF

[5] = biological target: T2, Prostaglandin E2 receptor EP4 subtype; test: Binding affinity was determined against prostanoid EP4 receptor

Sequence of Prostaglandin E2 receptor EP2 subtype (P43116 whole entry): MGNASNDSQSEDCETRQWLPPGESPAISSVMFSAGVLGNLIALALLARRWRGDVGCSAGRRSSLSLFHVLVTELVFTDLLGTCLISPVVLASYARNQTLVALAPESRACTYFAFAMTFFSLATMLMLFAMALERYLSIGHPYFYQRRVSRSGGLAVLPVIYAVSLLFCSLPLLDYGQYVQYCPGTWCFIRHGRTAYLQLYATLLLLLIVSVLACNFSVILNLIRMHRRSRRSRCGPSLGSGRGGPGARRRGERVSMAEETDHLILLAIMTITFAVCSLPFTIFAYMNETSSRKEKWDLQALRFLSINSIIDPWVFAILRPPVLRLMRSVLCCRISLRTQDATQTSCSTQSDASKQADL

Row | SMILES | Ki [1] [µM] | Ki [2] [µM] | EC50 [3] [µM] | Ki [4] [µM] | Ki [5] [µM]
1 | O=C(O)CCCCCCN1C(=O)CC[C@@H]1/C=C/C(O)Cc1ccccc1 (some centres not stated) | 31 | 100 | – | – | –
2 | O=C(O)CCCCCCN1C(=O)CC[C@@H]1/C=C/C(O)C1(c2ccccc2)CC1 (some centres not stated) | 164 | 20 | 0.18 | 28 | –
3 | O=C(O)CCCCCCN1C(=O)CC[C@@H]1CC[C@@H](O)c1cccc(C(F)(F)F)c1 | – | 12 | 0.13 | – | 0.0074
4 | O=C(O)CCCCCCN1C(=O)CC[C@@H]1/C=C/C(O)c1ccccc1 (some centres not stated) | 41 | – | > 10 | – | 2.3
5 | O=C(O)CCCCCCN1C(=O)CC[C@@H]1/C=C/C(O)c1cccc(-c2ccccc2Cl)c1 (some centres not stated) | 42 | > 100 | 0.04 | – | 0.0062
6 | Cc1cc(Cl)ccc1-c1cccc(C(O)/C=C/[C@H]2CCC(=O)N2CCCCCCC(=O)O)c1 (some centres not stated) | > 100 | 38 | 0.0008 | – | 0.0031
7 | O=C(O)CCCCCCN1C(=O)CC[C@@H]1/C=C/[C@@H](O)CC1CCC1 | > 100 | 56 | 0.2 | – | 0.0042
8 | CCCCC[C@H](O)/C=C/[C@H]1CCC(=O)N1CCCCCCC(=O)O | 4.5 | 3 | 0.056 | > 100 | 0.0045
9 | O=C(O)CCCCCCN1C(=O)CC[C@@H]1/C=C/[C@@H](O)CC1CCCCC1 | 71 | 16 | 0.12 | – | 0.0075
10 | CCCCC[C@@H](O)/C=C/[C@H]1CCC(=O)N1CCCCCCC(=O)O | – | – | 6.1 | – | –
11 | O=C(O)CCCCCCN1C(=O)CC[C@@H]1/C=C/[C@@H](O)Cc1cccc(C(F)(F)F)c1 | 29 | 13 | 0.012 | > 100 | 0.0016
12 | CCCCC[C@@H](O)/C=C/[C@@H]1CCC(=O)N1CCCCCCC(=O)O | – | – | 200 | – | –
13 | O=C(O)CCCCCCN1C(=O)CC[C@@H]1/C=C/C(O)c1ccc(C(F)(F)F)o1 (some centres not stated) | 58 | 4.9 | 0.04 | – | 0.01
14 | O=C(O)CCCCCCN1C(=O)CC[C@@H]1CC[C@@H](O)Cc1cccc(C(F)(F)F)c1 | 22 | 38 | 0.46 | – | 0.016
15 | O=C(O)CCCCCCN1C(=O)CC[C@@H]1/C=C/C(O)c1cccc(-c2ccc(Cl)cc2)c1 (some centres not stated) | 4.2 | > 100 | 0.05 | – | 0.39
16 | O=C(O)CCCCCCN1C(=O)CC[C@@H]1CCC(=O)c1cccc(C(F)(F)F)c1 | – | – | > 10 | – | –
17 | O=C(O)CCCCCCN1C(=O)CC[C@@H]1/C=C/C(O)c1cccc(-c2cccc(Cl)c2)c1 (some centres not stated) | 85 | > 100 | 0.17 | – | 0.42

Other lines, results leading:

Row | Ki [1] [µM] | Ki [2] [µM] | EC50 [3] [µM] | Ki [4] [µM] | Ki [5] [µM] | SMILES
18 | – | > 100 | 0.085 | 50 | 0.032 | O=C(O)CCCCCCN1C(=O)CC[C@@H]1/C=C/C(O)c1cccc(Oc2ccccc2)c1 (some centres not stated)
19 | – | – | > 100 | – | – | CCCCC[C@H](O)/C=C/[C@@H]1CCC(=O)N1CCCCCCC(=O)O
20 | 26 | > 100 | 0.015 | – | 0.0082 | Cc1cc(O)ccc1-c1cccc([C@H](O)CC[C@H]2CCC(=O)N2CCCCCCC(=O)O)c1
21 | – | – | 42 | – | – | O=C(O)CCCCCCN1C(=O)CC[C@@H]1/C=C/C(O)c1ccccc1-c1ccccc1 (some centres not stated)
22 | 68 | 131 | 0.5 | – | 0.14 | O=C(O)CCCCCCN1C(=O)CC[C@@H]1/C=C/C(O)c1cccc(C(F)(F)F)c1 (some centres not stated)
23 | – | 12 | 0.017 | > 100 | – | O=C(O)CCCCCCN1C(=O)CC[C@@H]1/C=C/C(O)Cc1cccc(C(F)(F)F)c1 (some centres not stated)
24 | > 100 | > 100 | 0.013 | – | 0.0049 | Cc1cc(O)ccc1-c1cccc(C(O)/C=C/[C@H]2CCC(=O)N2CCCCCCC(=O)O)c1 (some centres not stated)
25 | 32 | > 100 | 0.36 | – | 0.36 | O=C(O)CCCCCCN1C(=O)CC[C@@H]1/C=C/C(O)c1cccc(-c2ccccc2)c1 (some centres not stated)
